The text below walks through data of ChEMBL document CHEMBL1144405, “Synthesis and cellular studies of nonaggregated water-soluble phthalocyanines” (J Med Chem, 2005).

In assay [1] the test system is V79. Briefly: Percent of cell viability for the compound was measured in hamster V79 cells. The assay is classed as functional, Cricetulus griseus.
Assay [2] deals with HEp-2. As to the kind of experiment: Inhibitory concentration was measured against human HEp2 cells; upon exposure to light (1 J/cm**2). The conditions noted are these: HEp-2, light or radiation study. The assay is classed as functional, cell-based.
Assay [3] deals with HEp-2. As to the kind of experiment: Percent of cell viability for the compound was measured in human HEp2 cells. The assay is classed as functional.
Assay [4] deals with HEp2 (human). As to the kind of experiment: Inhibitory concentration was measured against human HEp2 cells; upon exposure to light (1 J/cm**2). The conditions noted are these: HEp2, light or radiation study.

Broadly, the IC50 is the concentration at which inhibition is half-maximal. High values mean weaker potency in that assay, low ones greater potency in that assay. In the case of `O=C([O-])c1cc(Oc2cc3c(cc2Oc2cc(C(=O)[O-])cc(C(=O)O)c2)-c2nc-3nc3[nH]c(nc4nc(nc5[nH]c(n2)c2cc(Oc6cc(C(=O)[O-])cc(C(=O)[O-])c6)c(Oc6cc(C(=O)[O-])cc(C(=O)O)c6)cc52)-c2cc(Oc5cc(C(=O)[O-])cc(C(=O)O)c5)c(Oc5cc(C(=O)[O-])cc(C(=O)O)c5)cc2-4)c2cc(Oc4cc(C(=O)[O-])cc(C(=O)O)c4)c(Oc4cc(C(=O)[O-])cc(C(=O)[O-])c4)cc32)cc(C(=O)[O-])c1.[Na+].[Na+].[Na+].[Na+].[Na+].[Na+].[Na+].[Na+].[Na+].[Zn+2]`, the Viability in assay [1] and in assay [3] was 80% each time. Moreover, the IC50 in assay [2] and in assay [4] was 4.5 µM throughout.
Consider `O=C(O)c1cc(Oc2cc3c(cc2Oc2cc(C(=O)O)cc(C(=O)O)c2)-c2nc-3nc3[n-]c(nc4nc(nc5[n-]c(n2)c2cc(Oc6cc(C(=O)O)cc(C(=O)O)c6)c(Oc6cc(C(=O)O)cc(C(=O)O)c6)cc52)-c2cc(Oc5cc(C(=O)O)cc(C(=O)O)c5)c(Oc5cc(C(=O)O)cc(C(=O)O)c5)cc2-4)c2cc(Oc4cc(C(=O)O)cc(C(=O)O)c4)c(Oc4cc(C(=O)O)cc(C(=O)O)c4)cc32)cc(C(=O)O)c1.[Zn+2]`, for which the Viability is above 80% in assay [1] and 80% in assay [3].
Take `O=C([O-])c1cc(Oc2cc3c(cc2Oc2cc(C(=O)[O-])cc(C(=O)[O-])c2)-c2nc-3nc3[nH]c(nc4nc(nc5[nH]c(n2)c2cc(Oc6cc(C(=O)[O-])cc(C(=O)[O-])c6)c(Oc6cc(C(=O)[O-])cc(C(=O)[O-])c6)cc52)-c2cc(Oc5cc(C(=O)[O-])cc(C(=O)[O-])c5)c(Oc5cc(C(=O)[O-])cc(C(=O)[O-])c5)cc2-4)c2cc(Oc4cc(C(=O)[O-])cc(C(=O)[O-])c4)c(Oc4cc(C(=O)[O-])cc(C(=O)[O-])c4)cc32)cc(C(=O)[O-])c1.[Na+].[Na+].[Na+].[Na+].[Na+].[Na+].[Na+].[Na+].[Na+].[Na+].[Na+].[Na+].[Na+].[Na+].[Na+].[Na+].[Zn]`: the Viability in assay [1] and in assay [3] was 80% in each case.
